# ± gives the standard deviation of the averaged measurements.
# Legend:
# TIOGUANINE [1] = compound: T1, Nc1nc2[nH]cnc2c(=S)[nH]1 [TIOGUANINE]; assay: surviving fraction relative to DMSO-only wells; higher = less growth inhibition; conditions: exposure time: 5 days
# In short: (§1)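 Tumour cell lines in log phase were plated in 384-well plates at 250–500 cells per well, then, after 24 hours, exposed continuously for five days to inhibitors at 0.5, 1, 5, 10, 50, 100, 500 and 1000 nM. Viability came from CellTiter-Glo luminescence, and surviving fraction is that signal normalised to the median of DMSO-only wells. Plates were read after 10 minutes at room temperature, and each line, screened three times, was kept only when replicate Pearson r was >0.7 and median Z' was >0.3.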
# SAPACITABINE [2] = compound: T2, CCCCCCCCCCCCCCCC(=O)Nc1ccn([C@@H]2O[C@H](CO)[C@@H](O)[C@@H]2C#N)c(=O)n1 [SAPACITABINE]; assay: as above; conditions: exposure time: 5 days
# In short: as §1
# BI-2536 [3] = compound: T3, CC[C@@H]1C(=O)N(C)c2cnc(Nc3ccc(C(=O)NC4CCN(C)CC4)cc3OC)nc2N1C1CCCC1 [BI-2536]; assay: as above; conditions: exposure time: 5 days
# In short: as §1
# AFATINIB [4] = compound: T4, CN(C)C/C=C/C(=O)Nc1cc2c(Nc3ccc(F)c(Cl)c3)ncnc2cc1O[C@H]1CCOC1 [AFATINIB]; assay: as above; conditions: exposure time: 5 days
# In short: as §1
# SNX-5422 [5] = compound: T5, CC1(C)CC(=O)c2c(C(F)(F)F)nn(-c3ccc(C(N)=O)c(N[C@H]4CC[C@H](OC(=O)CN)CC4)c3)c2C1 [SNX-5422]; assay: as above; conditions: exposure time: 5 days
# In short: as §1
# CANERTINIB [6] = compound: T6, C=CC(=O)Nc1cc2c(Nc3ccc(F)c(Cl)c3)ncnc2cc1OCCCN1CCOCC1 [CANERTINIB]; assay: as above; conditions: exposure time: 5 days
# In short: as §1
# [7] = compound: Cn1cc(C2=Nc3cc(NC(=O)C(N)C4CCCCC4)cc4c3C2=CNNC4=O)cn1; assay: as above; conditions: exposure time: 5 days
# In short: as §1
# MDV3100 [8] = compound: T7, CNC(=O)c1ccc(N2C(=S)N(c3ccc(C#N)c(C(F)(F)F)c3)C(=O)C2(C)C)cc1F [MDV3100]; assay: as above; conditions: exposure time: 5 days
# In short: as §1
# TIOGUANINE [9] = compound: T1, TIOGUANINE; assay: area under dose-response curve of surviving fraction (unscaled, Aref=0) (surviving fraction x log10(nM)); higher = more resistant; conditions: exposure time: 5 days; dose range 0.5-1000 nM
# In short: (§2)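 Each tumour cell line was screened three times in 384-well plates, receiving eight inhibitor concentrations from 0.5 to 1000 nM for five days. CellTiter-Glo luminescence gave viability, normalised to DMSO-only wells. Using the drc R package, surviving fractions were fitted with 3-parameter logistic dose-response curves, and the unscaled activity area over log10 dose (Aref = 0) was taken as the area under the curve.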
# SAPACITABINE [10] = compound: T2, SAPACITABINE; assay: as above; conditions: exposure time: 5 days; dose range 0.5-1000 nM
# In short: as §2
# BI-2536 [11] = compound: T3, BI-2536; assay: as above; conditions: exposure time: 5 days; dose range 0.5-1000 nM
# In short: as §2
# AFATINIB [12] = compound: T4, AFATINIB; assay: as above; conditions: exposure time: 5 days; dose range 0.5-1000 nM
# In short: as §2
# SNX-5422 [13] = compound: T5, SNX-5422; assay: as above; conditions: exposure time: 5 days; dose range 0.5-1000 nM
# In short: as §2
# CANERTINIB [14] = compound: T6, CANERTINIB; assay: as above; conditions: exposure time: 5 days; dose range 0.5-1000 nM
# In short: as §2
# [15] = compound: Cn1cc(C2=Nc3cc(NC(=O)C(N)C4CCCCC4)cc4c3C2=CNNC4=O)cn1; assay: as above; conditions: exposure time: 5 days; dose range 0.5-1000 nM
# In short: as §2
# MDV3100 [16] = compound: T7, MDV3100; assay: as above; conditions: exposure time: 5 days; dose range 0.5-1000 nM
# In short: as §2
test system,measurement,setting,value
HOSMNG BONE,surviving fraction,TIOGUANINE [1]; 0.5 nM,0.991 ± 0.03
same,surviving fraction,TIOGUANINE [1]; 1 nM,1.01 ± 0.029
same,surviving fraction,TIOGUANINE [1]; 5 nM,0.988 ± 0.068
same,surviving fraction,TIOGUANINE [1]; 10 nM,0.989 ± 0.016
same,surviving fraction,TIOGUANINE [1]; 50 nM,1.05 ± 0.047
same,surviving fraction,TIOGUANINE [1]; 100 nM,1.02 ± 0.089
same,surviving fraction,TIOGUANINE [1]; 500 nM,1.04 ± 0.037
same,surviving fraction,TIOGUANINE [1]; 1000 nM,0.983 ± 0.028
same,surviving fraction,SAPACITABINE [2]; 0.5 nM,0.96 ± 0.087
same,surviving fraction,SAPACITABINE [2]; 1 nM,1.02 ± 0.032
same,surviving fraction,SAPACITABINE [2]; 5 nM,1.06 ± 0.021
same,surviving fraction,SAPACITABINE [2]; 10 nM,1.04 ± 0.031
same,surviving fraction,SAPACITABINE [2]; 50 nM,1.12 ± 0.078
same,surviving fraction,SAPACITABINE [2]; 100 nM,1.16 ± 0.016
same,surviving fraction,SAPACITABINE [2]; 500 nM,0.948 ± 0.021
same,surviving fraction,SAPACITABINE [2]; 1000 nM,0.703 ± 0.046
same,surviving fraction,BI-2536 [3]; 0.5 nM,1.03 ± 0.017
same,surviving fraction,BI-2536 [3]; 1 nM,0.955 ± 0.11
same,surviving fraction,BI-2536 [3]; 5 nM,0.918 ± 0.055
same,surviving fraction,BI-2536 [3]; 10 nM,0.268 ± 0.033
same,surviving fraction,BI-2536 [3]; 50 nM,0.047 ± 0.0036
same,surviving fraction,BI-2536 [3]; 100 nM,0.046 ± 0.013
same,surviving fraction,BI-2536 [3]; 500 nM,0.0673 ± 0.0061
same,surviving fraction,BI-2536 [3]; 1000 nM,0.0843 ± 0.013
same,surviving fraction,AFATINIB [4]; 0.5 nM,0.944 ± 0.077
same,surviving fraction,AFATINIB [4]; 1 nM,0.974 ± 0.04
same,surviving fraction,AFATINIB [4]; 5 nM,0.98 ± 0.021
same,surviving fraction,AFATINIB [4]; 10 nM,0.915 ± 0.11
same,surviving fraction,AFATINIB [4]; 50 nM,1.04 ± 0.054
same,surviving fraction,AFATINIB [4]; 100 nM,1.02 ± 0.13
same,surviving fraction,AFATINIB [4]; 500 nM,1.06 ± 0.048
same,surviving fraction,AFATINIB [4]; 1000 nM,0.991 ± 0.088
same,surviving fraction,SNX-5422 [5]; 0.5 nM,1.02 ± 0.017
same,surviving fraction,SNX-5422 [5]; 1 nM,1 ± 0.036
same,surviving fraction,SNX-5422 [5]; 5 nM,1.01 ± 0.04
same,surviving fraction,SNX-5422 [5]; 10 nM,0.973 ± 0.018
same,surviving fraction,SNX-5422 [5]; 50 nM,0.964 ± 0.084
same,surviving fraction,SNX-5422 [5]; 100 nM,0.299 ± 0.061
same,surviving fraction,SNX-5422 [5]; 500 nM,0.12 ± 0.012
same,surviving fraction,SNX-5422 [5]; 1000 nM,0.108 ± 0.0047
same,surviving fraction,CANERTINIB [6]; 0.5 nM,0.92 ± 0.04
same,surviving fraction,CANERTINIB [6]; 1 nM,0.978 ± 0.014
same,surviving fraction,CANERTINIB [6]; 5 nM,1.003 ± 0.0067
same,surviving fraction,CANERTINIB [6]; 10 nM,1.01 ± 0.055
same,surviving fraction,CANERTINIB [6]; 50 nM,1.08 ± 0.12
same,surviving fraction,CANERTINIB [6]; 100 nM,1.11 ± 0.1
same,surviving fraction,CANERTINIB [6]; 500 nM,1.04 ± 0.025
same,surviving fraction,CANERTINIB [6]; 1000 nM,1.11 ± 0.016
same,surviving fraction,[7]; 0.5 nM,0.954 ± 0.099
same,surviving fraction,[7]; 1 nM,0.99 ± 0.083
same,surviving fraction,[7]; 5 nM,0.954 ± 0.052
same,surviving fraction,[7]; 10 nM,0.943 ± 0.016
same,surviving fraction,[7]; 50 nM,0.992 ± 0.025
same,surviving fraction,[7]; 100 nM,0.975 ± 0.076
same,surviving fraction,[7]; 500 nM,0.737 ± 0.017
same,surviving fraction,[7]; 1000 nM,0.15 ± 0.031
same,surviving fraction,MDV3100 [8]; 0.5 nM,1.02 ± 0.035
same,surviving fraction,MDV3100 [8]; 1 nM,1.01 ± 0.023
same,surviving fraction,MDV3100 [8]; 5 nM,1.02 ± 0.041
same,surviving fraction,MDV3100 [8]; 10 nM,1.05 ± 0.033
same,surviving fraction,MDV3100 [8]; 50 nM,1.11 ± 0.054
same,surviving fraction,MDV3100 [8]; 100 nM,1.18 ± 0.088
same,surviving fraction,MDV3100 [8]; 500 nM,1.15 ± 0.062
same,surviving fraction,MDV3100 [8]; 1000 nM,1.09 ± 0.032
same,area under dose-response curve,TIOGUANINE [9],3.34
same,area under dose-response curve,SAPACITABINE [10],3.25
same,area under dose-response curve,BI-2536 [11],1.32
same,area under dose-response curve,AFATINIB [12],3.23
same,area under dose-response curve,SNX-5422 [13],2.33
same,area under dose-response curve,CANERTINIB [14],3.4
same,area under dose-response curve,[15],3.09
same,area under dose-response curve,MDV3100 [16],3.56

# — the supplement of paper PMC6045584
